Laboratory results: publication PMC13408680, “SLC26A11 is an atypical solute carrier with dual transport-channel function mediating lysosomal sulfate transport” (Nature Communications, 2026)

T1: SLC26A11^ΔC (SLC26A11(ΔC)) (Homo sapiens, UniProt Q86WA9, E320Q)
T1 construct: C-terminal disordered 23 residues deleted (MD model residues 26-583); expressed in Trichoplusia ni cells by baculovirus; N-glycosylated at Asn-294; homodimer; DDM micelles (DSF), SoyPC/BMP proteoliposomes (transport), MSP1-E3D1 nanodiscs (cryo-EM)
T1 sequence (Q86WA9 1-583 E320Q): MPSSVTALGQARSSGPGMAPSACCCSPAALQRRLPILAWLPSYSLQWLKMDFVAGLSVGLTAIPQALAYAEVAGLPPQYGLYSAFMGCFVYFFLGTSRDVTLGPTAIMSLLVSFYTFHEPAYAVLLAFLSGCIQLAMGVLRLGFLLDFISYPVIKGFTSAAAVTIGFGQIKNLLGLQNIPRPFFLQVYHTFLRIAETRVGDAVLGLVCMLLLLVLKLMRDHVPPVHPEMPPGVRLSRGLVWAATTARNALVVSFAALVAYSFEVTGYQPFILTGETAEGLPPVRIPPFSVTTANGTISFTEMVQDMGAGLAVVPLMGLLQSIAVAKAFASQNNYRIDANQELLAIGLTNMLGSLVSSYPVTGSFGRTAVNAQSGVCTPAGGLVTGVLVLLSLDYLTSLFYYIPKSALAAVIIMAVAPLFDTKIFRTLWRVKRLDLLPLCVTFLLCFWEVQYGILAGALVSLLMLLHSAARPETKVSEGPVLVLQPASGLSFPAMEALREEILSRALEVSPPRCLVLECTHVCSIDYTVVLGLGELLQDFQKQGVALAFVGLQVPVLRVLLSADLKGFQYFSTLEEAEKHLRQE

T2: SLC26A11^ΔC (SLC26A11(ΔC)) (Homo sapiens, UniProt Q86WA9)
T2 construct: C-terminal disordered 23 residues deleted (MD model residues 26-583); expressed in Trichoplusia ni cells by baculovirus; N-glycosylated at Asn-294; homodimer; DDM micelles (DSF), SoyPC/BMP proteoliposomes (transport), MSP1-E3D1 nanodiscs (cryo-EM)
T2 sequence (Q86WA9 1-583): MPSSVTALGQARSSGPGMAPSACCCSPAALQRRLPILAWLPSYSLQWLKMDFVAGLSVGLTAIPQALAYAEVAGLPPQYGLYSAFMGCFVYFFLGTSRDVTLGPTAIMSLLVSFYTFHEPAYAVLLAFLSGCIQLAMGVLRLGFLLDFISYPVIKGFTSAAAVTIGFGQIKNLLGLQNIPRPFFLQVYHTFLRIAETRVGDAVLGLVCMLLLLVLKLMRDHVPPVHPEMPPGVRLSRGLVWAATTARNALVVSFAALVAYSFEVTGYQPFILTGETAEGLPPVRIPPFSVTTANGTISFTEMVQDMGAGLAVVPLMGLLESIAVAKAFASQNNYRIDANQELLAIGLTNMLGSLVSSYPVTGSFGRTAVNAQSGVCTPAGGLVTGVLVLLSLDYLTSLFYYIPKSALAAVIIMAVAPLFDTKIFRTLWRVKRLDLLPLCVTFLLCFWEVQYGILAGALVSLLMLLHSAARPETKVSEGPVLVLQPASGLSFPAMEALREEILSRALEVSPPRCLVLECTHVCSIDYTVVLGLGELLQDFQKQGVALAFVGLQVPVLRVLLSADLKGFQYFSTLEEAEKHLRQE


Assays:
[1] = biological target: T1, SLC26A11^ΔC (SLC26A11(ΔC)); assay: differential scanning fluorimetry (nanoDSF), anion titration; format: binding
[2] = biological target: T2, SLC26A11^ΔC (SLC26A11(ΔC)); assay: as above; format: binding; conditions: read-out: apparent KD
purified protein = substrate: O=S(=O)(O)O; assay: purified protein; format: biochemical, Homo sapiens; conditions: pH out 5.0, pH in 7.5, 50 mM internal chloride, 30 °C, labelled compound

| Molecule | Kd [1] | Kd [2] | Km (purified protein) |
| --- | --- | --- | --- |
| Cl [chloride] | 8.8 ± 1.4 mM | 6 ± 1.4 mM |  |
| O=S(=O)(O)O [sulfate] | 0.019 ± 0.004 mM | 0.057 ± 0.011 mM |  |
| SLC26A11^ΔC (SLC26A11(ΔC)) (Homo sapiens) (protein, C-terminal disordered 23 residues deleted (MD model residues 26-583); expressed in Trichoplusia ni cells by baculovirus; N-glycosylated at Asn-294; homodimer; DDM micelles (DSF), SoyPC/BMP proteoliposomes (transport), MSP1-E3D1 nanodiscs (cryo-EM)) MPSSVTALGQARSSGPGMAPSACCCSPAALQRRLPILAWLPSYSLQWLKMDFVAGLSVGLTAIPQALAYAEVAGLPPQYGLYSAFMGCFVYFFLGTSRDVTLGPTAIMSLLVSFYTFHEPAYAVLLAFLSGCIQLAMGVLRLGFLLDFISYPVIKGFTSAAAVTIGFGQIKNLLGLQNIPRPFFLQVYHTFLRIAETRVGDAVLGLVCMLLLLVLKLMRDHVPPVHPEMPPGVRLSRGLVWAATTARNALVVSFAALVAYSFEVTGYQPFILTGETAEGLPPVRIPPFSVTTANGTISFTEMVQDMGAGLAVVPLMGLLESIAVAKAFASQNNYRIDANQELLAIGLTNMLGSLVSSYPVTGSFGRTAVNAQSGVCTPAGGLVTGVLVLLSLDYLTSLFYYIPKSALAAVIIMAVAPLFDTKIFRTLWRVKRLDLLPLCVTFLLCFWEVQYGILAGALVSLLMLLHSAARPETKVSEGPVLVLQPASGLSFPAMEALREEILSRALEVSPPRCLVLECTHVCSIDYTVVLGLGELLQDFQKQGVALAFVGLQVPVLRVLLSADLKGFQYFSTLEEAEKHLRQE |  |  | 39.7 ± 5.5 µM |
